{"source": "patent US20080085861A1", "about": "“GAS1 POLYPEPTIDES” (priority 1999, published 2008)", "molecules": {"B1": {"name": "Gas1 protein: purified Gas1 protein overexpressed by a prokaryotic vector (pTrcHis) in bacteria (protein)", "chain": "LAHGRRLICWQALLQCQGEPECSYAYNQYAEACAPVLAQHGGGDAPGAAAAAFPASAASFSSRWRCPSHCISALIQLNHTRRGPALEDCDCAQDENCKSTKRAIEPCLPRTSGGGAGGPGAGGVMGCTEARRRCDRDSRCNLALSRYLTYCGKVFNGLRCTDECRTVIEDMLAMPKAALLNDCVCDGLERPICESVKENMARLCFGAELGNGPGSSGSDGGLDDYYDEDYDDEQRTGGAGGEQPLDDDDGVPHPPRPGSGAAASGGRGDLPYGPGRRS"}}, "key": {"[1]": {"tested_on": "Gas1 expression", "assay": "Gas1 expression in brain after intraperitoneal kainic acid (Northern blot)", "assay_type": "in vivo, rat", "details": "10 mg/kg intraperitoneal; hippocampus and olfactory cortex", "description": "Already detectable induced Gas1 mRNA levels after kainic acid appear 6 hours after the beginning of treatment and were maintained for at least 10 days. In order to reveal Gas1 induction and to confirm neurone localization thereof in situ hybridization after administering kainic acid was performed. […] Similar results were observed after provoking an experimental ischemic process in gerbil brain by transient occlusion of both carotids, giving rise to rapid degeneration of a numerous population of pyramidal neurons of the CA1 layer of the hippocampus. It was observed that this massive neuron death was preceded by a significant rise of Gas1 mRNA and Gas1 protein levels (evaluated by immunocytochemistry) in those neurons. Likewise, it was also observed that neuron loss in all the cerebral cortex that is produced in rats in the perinatal period after exposure to ionizing radiation is preceded by high induction of Gas1 mRNA."}, "[2]": {"tested_on": "human neuroblastoma NB69 cells", "assay": "Staurosporine-induced neuronal death in NB69 cells, viable cell count", "assay_type": "cell-based", "details": "200 nM staurosporine, viability 24 hr after exposure; 25 μM Ag1 in NB69 wt, or stable expression in NB69-Gas1 cells", "description": "Columns 1 and 2. […] Columns 3 and 4. The viability was analyzed 24 hr after exposure to staurosporine (200 nM) in all the cases. Results are expressed as mean +/−SEM. Statistical analysis was performed by Student's t-test. *** denotes […], and other treatment groups were statistically non-significant (p<0.5).\nStaurosporine-induced neuronal death was assayed in human neuroblastoma NB69 cells cultured in DMEM/HAM F12 medium supplemented with 10% fetal calf serum, 2 mM glutamine and 50 μg/ml gentamycin. Wild-type or stably transfected NB69 cells (2×10^4 cells/35 mm dish) were exposed to […] staurosporine (RBI). Phase-bright cells without signs of membrane or neurite degeneration were counted 24 hr later. Experiments were done in triplicate and repeated as least five times. Stably transfected NB69 cells that overexpress Gas1 in the […] orientation (NB69-Gas1) were prepared by the calcium phosphate precipitation method followed by two weeks of geneticin selection. Control cells were prepared in parallel by transfection with pCDNA3 vector alone (NB69-vector). Expression of the constructs in the cell clones were analyzed by northern blot analysis, and the clones having the highest expression were chosen for the experiments. Stable tranfectants were kept in the presence of 0.3 mg/ml of geneticin, which was removed before plating for the experiments."}, "[3]": {"tested_on": "cortico-hippocampal cultures", "assay": "NMDA-induced neuronal death (excitotoxicity) in cortico-hippocampal cultures, viability by vital staining", "assay_type": "cell-based, rat", "design": "survival: dose or concentration left out as unconfirmed", "description": "The viability of mature cortico-hippocampal cultures was analyzed 24 hr after […] NMDA exposure. Pretreatment with the different antisense oligonucleotides at the indicated concentrations was done 24 hr before the exposure to NMDA. Results are expressed as mean +/−SEM. Statistical analysis was performed by Student's t-test. *** denotes […], and other treatment groups were statistically non-significant (p<0.5).\nNMDA-induced excitotoxicity was analyzed in cortico-hippocampal cultures maintained for 12-14 DIV similar to those already described in Example 1. To apply the excitotoxic insult, the cultures were rinsed twice with Locke's solution without Mg2+ and exposed to […] NMDA (Sigma) for 5 min. in the same Locke's solution or to Locke's solution alone as control. NMDA was washed out, the Mg2+ concentration was restored by 2 changes of Locke's +Mg2+ solution, and the original medium was replaced. Phase-bright bipolar cells, taken to represent living neurons, were counted 24 hr after the NMDA exposure. Alternatively, the vital staining method (Jones and Senft, 1985 An improved method to determine cell viability by simultaneous staining with fluorescein diacetate-propidium iodide. J Histochem Cytochem 33:77-79) was used to assess the extent of neuronal death and the protection by antisense oligonucleotide treatments. Similar results were obtained using either method. […]"}, "[4]": {"assay": "Channel formation of purified Gas1 protein in artificial bilayers", "assay_type": "biochemical", "details": "purified protein expressed in bacteria (pTrcHis)", "source_text": "Initially, Gas1 expression has been related to the G0 phase of cell cycle arrest in rat fibroblasts deprived of serum (Del Sal et al., 1992). […] Up to now it had been described that Gas1 protein was a cell membrane protein and as of its amino acid sequence the presence of two transmembrane segments had been proposed and a hypothetical RGD domain that may interact with integrin, the only domain described that relates its structure to its arrest function of the cell cycle (Schneider et al.). The present inventors have succeeded in overexpressing the Gas1 protein by means of a prokaryotic vector (pTrcHis) in bacteria for subsequent purification in sufficient amounts to carry out protein studies. […] Aside from the already described location of this protein in the cell membrane we have located the presence of Gas1 in the perinuclear and mitochondrial membrane. It must be pointed out that Bcl-2 and Bax, proteins related to the […], are also located in the mitochondrial membrane and are capable of forming ionic channels. This common location of these proteins makes compatible a possible functional interaction of Gas1 with Bax type proapoptotic proteins and Bcl-2 and Bcl XL antiapoptotic proteins."}}, "note": "“Also recorded” adds a separate entry of the source."}
{"molecule": "C=C(C)[C@H]1CN[C@H](C(=O)O)[C@H]1CC(=O)O", "note": "[kainic acid]", "values": [{"measurement": "induction of Gas1 expression", "setting": "[1]", "value": "strong induction"}]}
{"molecule": "5′-TCCTCATCCATCCAT-3′ (DNA, linkages s2 o10 s2 (s phosphorothioate, o phosphodiester), methylation of C not given here) [AG1, 15-mer Gas1 antisense oligonucleotide spanning the start site of translation, protected at each end by two phosphorothioate groups]", "values": [{"measurement": "effect on staurosporine-induced reduction in survival", "setting": "[2]", "value": "prevents the reduction in survival; also recorded: total blocking"}, {"measurement": "effect on NMDA-induced neuronal death", "setting": "[3]; 25 μM Ag1, pretreatment 24 hr before 500 mM NMDA, viability 24 hr after exposure", "value": "blocks NMDA-induced neuronal death"}, {"measurement": "survival", "setting": "[3]; NMDA induced neuron death in primary neuron cultures, FIG. 2a", "value": "~100", "unit": "%"}]}
{"molecule": "B1", "values": [{"measurement": "channel formation", "setting": "[4]", "value": "capable of inserting in and forming cationic channels"}]}
